Laboratory results published in patent US20230330093A1, “APPLICATION OF NITROGEN-CONTAINING SATURATED HETEROCYCLIC COMPOUND” (SHANGHAI PHARMACEUTICALS HOLDING CO., LTD., priority 2020, published 2023).
Where “and” joins values, the source holds several entries; their conditions need not be identical. Equal entries are not always repeated.

System: rhesus monkeys with spontaneous chronic kidney disease
Assay: Effect on glomerular filtration rate eGFRcreat-cys, 8-week administration
Assay type: in vivo, Macaca mulatta (Rhesus Macaque)
Description: CKD-EPI rating […]-G3b, glomerular filtration rate eGFR: 30 59 ml/min/1.73 m^2; or moderate to severe increase in proteinuria (A2-A3): urine albumin/creatinine ratio (UACR)>15 mg/g-350 mg/g (4-6 hour urine collection), vs. age-matched control group 3±2 mg/g. In the trial, animals were brought in three stages. […] Glomerular filtration rate […]: creatinine (Cr-P), urea nitrogen (BUN) and cystatin (CysC) were detected, and the eGFR value was obtained by calculation. It was performed once before the administration and once every two weeks after the administration. […] ELISA kit was used for NT-proBNP test. [table] Selected […] in each group: 30 59 ml/min/1.73 m^2. The changes in the glomerular filtration rate of W8 and baseline were analyzed.

COC(=O)NCCCn1nc([C@@H](C)N(C(=O)[C@H]2CNCCO2)C2CC2)c2ccc(C)nc21.O=C(O)C[C@H](O)C(=O)O [malate of compound of Formula I]
eGFRcreat-cy, Change value (1 mg/kg oral once a day, 2 weeks vs baseline, per animal + Mean ± SD): 1 ml/min/1.73 m^2 and 2 ml/min/1.73 m^2 and −3 ml/min/1.73 m^2 and −2 ml/min/1.73 m^2 and 4 ml/min/1.73 m^2
eGFRcreat-cy, Change value (1 mg/kg oral once a day, 2 weeks vs baseline, per animal + Mean ± SD, mean): 0 ± 3 ml/min/1.73 m^2
eGFRcreat-cy, Change value (1 mg/kg oral once a day, 4 weeks vs baseline, per animal + Mean ± SD): 8 ml/min/1.73 m^2 and 10 ml/min/1.73 m^2 and 3 ml/min/1.73 m^2 and 1 ml/min/1.73 m^2 and 5 ml/min/1.73 m^2
eGFRcreat-cy, Change value (1 mg/kg oral once a day, 4 weeks vs baseline, per animal + Mean ± SD, mean): 5 ± 4 ml/min/1.73 m^2
eGFRcreat-cy, Change value (1 mg/kg oral once a day, 6 weeks vs baseline, per animal + Mean ± SD): 7 ml/min/1.73 m^2 and 3 ml/min/1.73 m^2 (3×) and 6 ml/min/1.73 m^2
eGFRcreat-cy, Change value (1 mg/kg oral once a day, 6 weeks vs baseline, per animal + Mean ± SD, mean): 4 ± 2 ml/min/1.73 m^2
eGFRcreat-cy, Change value (1 mg/kg oral once a day, 8 weeks vs baseline, per animal + Mean ± SD (no statistical change vs placebo)): 3±4 ml/min/1.73 m^2 and 7 ml/min/1.73 m^2 and 6 ml/min/1.73 m^2 and 0 ml/min/1.73 m^2 and 2 ml/min/1.73 m^2 and 5 ml/min/1.73 m^2
eGFRcreat-cy, Change value (1 mg/kg oral once a day, Baseline, per animal + Mean ± SD): 0 ml/min/1.73 m^2
eGFRcreat-cy, Change value (1 mg/kg oral once a day, Baseline, per animal + Mean ± SD, mean): 0 ± 0 ml/min/1.73 m^2
eGFRcreat-cys (1 mg/kg qd (n = 5), 2 weeks): 53 ml/min/1.73 m^2 and 56 ml/min/1.73 m^2 and 50 ml/min/1.73 m^2 and 48 ml/min/1.73 m^2
eGFRcreat-cys (1 mg/kg qd (n = 5), 2 weeks, group mean): 52 ± 3 ml/min/1.73 m^2
eGFRcreat-cys (1 mg/kg qd (n = 5), 4 weeks): 60 ml/min/1.73 m^2 and 64 ml/min/1.73 m^2 and 55 ml/min/1.73 m^2 and 52 ml/min/1.73 m^2 and 56 ml/min/1.73 m^2
eGFRcreat-cys (1 mg/kg qd (n = 5), 4 weeks, group mean): 57 ± 5 ml/min/1.73 m^2
eGFRcreat-cys (1 mg/kg qd (n = 5), 6 weeks): 58 ml/min/1.73 m^2 and 57 ml/min/1.73 m^2 and 56 ml/min/1.73 m^2 and 53 ml/min/1.73 m^2
eGFRcreat-cys (1 mg/kg qd (n = 5), 6 weeks, group mean): 56 ± 2 ml/min/1.73 m^2
eGFRcreat-cys (1 mg/kg qd (n = 5), 8 weeks): 58 ml/min/1.73 m^2 and 59 ml/min/1.73 m^2 and 53 ml/min/1.73 m^2 and 48 ml/min/1.73 m^2 and 57 ml/min/1.73 m^2
eGFRcreat-cys (1 mg/kg qd (n = 5), 8 weeks, group mean): 55 ± 5 ml/min/1.73 m^2
eGFRcreat-cys (1 mg/kg qd (n = 5), Baseline, single animals and Mean ± SD): 51 ml/min/1.73 m^2 and 54 ml/min/1.73 m^2 and 53 ml/min/1.73 m^2 and 50 ml/min/1.73 m^2 and 52 ml/min/1.73 m^2
eGFRcreat-cys (1 mg/kg qd (n = 5), Baseline, single animals and Mean ± SD, group mean): 52 ± 1 ml/min/1.73 m^2
eGFRcreat-cy, Change value (2 mg/kg oral once a day, 2 weeks vs baseline, per animal + Mean ± SD): 5 ml/min/1.73 m^2 and −3 ml/min/1.73 m^2 (3×) and 0 ml/min/1.73 m^2
eGFRcreat-cy, Change value (2 mg/kg oral once a day, 2 weeks vs baseline, per animal + Mean ± SD, mean): −1 ± 3 ml/min/1.73 m^2
eGFRcreat-cy, Change value (2 mg/kg oral once a day, 4 weeks vs baseline, per animal + Mean ± SD): 7 ml/min/1.73 m^2 and −5 ml/min/1.73 m^2 and 1 ml/min/1.73 m^2 (2×) and 10 ml/min/1.73 m^2
eGFRcreat-cy, Change value (2 mg/kg oral once a day, 4 weeks vs baseline, per animal + Mean ± SD, mean): 3 ± 6 ml/min/1.73 m^2
eGFRcreat-cy, Change value (2 mg/kg oral once a day, 6 weeks vs baseline, per animal + Mean ± SD): 4 ml/min/1.73 m^2 and −1 ml/min/1.73 m^2 and 0 ml/min/1.73 m^2 and 5 ml/min/1.73 m^2 (2×)
eGFRcreat-cy, Change value (2 mg/kg oral once a day, 6 weeks vs baseline, per animal + Mean ± SD, mean): 3 ± 3 ml/min/1.73 m^2
eGFRcreat-cy, Change value (2 mg/kg oral once a day, 8 weeks vs baseline, per animal + Mean ± SD (p<0.05 vs placebo)): 3±3 ml/min/1.73 m^2 and 5 ml/min/1.73 m^2 and 0 ml/min/1.73 m^2 and 2 ml/min/1.73 m^2 and 6 ml/min/1.73 m^2 and 1 ml/min/1.73 m^2
eGFRcreat-cy, Change value (2 mg/kg oral once a day, Baseline, per animal + Mean ± SD): 0 ml/min/1.73 m^2
eGFRcreat-cy, Change value (2 mg/kg oral once a day, Baseline, per animal + Mean ± SD, mean): 0 ± 0 ml/min/1.73 m^2
eGFRcreat-cys (2 mg/kg qd (n = 5), 2 weeks): 58 ml/min/1.73 m^2 and 47 ml/min/1.73 m^2 and 46 ml/min/1.73 m^2 and 43 ml/min/1.73 m^2 and 57 ml/min/1.73 m^2
eGFRcreat-cys (2 mg/kg qd (n = 5), 2 weeks, group mean): 50 ± 7 ml/min/1.73 m^2
eGFRcreat-cys (2 mg/kg qd (n = 5), 4 weeks): 61 ml/min/1.73 m^2 and 45 ml/min/1.73 m^2 and 50 ml/min/1.73 m^2 and 56 ml/min/1.73 m^2 and 59 ml/min/1.73 m^2
eGFRcreat-cys (2 mg/kg qd (n = 5), 4 weeks, group mean): 54 ± 7 ml/min/1.73 m^2
eGFRcreat-cys (2 mg/kg qd (n = 5), 6 weeks): 58 ml/min/1.73 m^2 and 48 ml/min/1.73 m^2 and 51 ml/min/1.73 m^2 and 62 ml/min/1.73 m^2
eGFRcreat-cys (2 mg/kg qd (n = 5), 6 weeks, group mean): 54 ± 6 ml/min/1.73 m^2
